Source: patent publication US20130287919A1, “METHOD OF USING DIETARY INGREDIENTS DIHYDROQUERCETIN (TAXIFOLIN), ARABINOGALACTAN AND ARABINOGALACTAN IN COMBINATION WITH DIHYDROQUERCETIN (TAXIFOLIN) FOR APPLICATIONS IN FOOD PRODUCTS” (FLAVITPURE, INC., priority 2012, published 2013)
Several values for one entry are separate records, joined by “and”; a condition that tells them apart may be missing. Equal values may be shown once.

How the values were obtained:
[1] = milks produced during the dry-lot regime; cited from earlier work
serum and liver lipids = settings: following exposure to toxic ionizing radiation; cited from earlier work
rats = settings: high levels, long periods of time; cited from earlier work
[2] = oxygen radical absorbance capacity (ORAC) assay; type: biochemical
Experimental: FIGS. 6 and 7 illustrate ORAC and CAP-e antioxidant tests conducted on Dihydroquercetin (taxifolin). The ORAC test measures the scavenging capacity at 37° C. of peroxyl radical induced by 2,2 -azobis-(2-amidinopropane) dihydrochloride (AAPH) using fluorescence at a wavelength of 565 nm with excitation at 540 nm. The results are calculated and expressed as milimoles of Trolox equivalents per gram. This test is widely used for evaluation and comparison of the antioxidant capacity in natural products and extracts and has been successfully applied to bioavailability studies, showing increased antioxidant capacity in serum in test subjects after consumption of antioxidant-rich foods.
Two different but synergistic testing principles are shown in FIG. 6: (A) The oxygen radical absorbance capacity (ORAC) assay is a chemical test, in which interference with specific chemical reactions are measured; (B) The cell-based antioxidant protection in erythrocytes (CAP-e) assay reflects whether antioxidants can enter into and protect live cells from oxidative damage. Dihydroquercetin (taxifolin) has the ORAChydrophilic assay over 15,000 μmol TE/g.

[3] = lard, cottonseed oil, and butter oil; cited from earlier work
lipid peroxidation = settings: in vitro and ex vivo; cited from earlier work
[4] = concentration 0.001%; cooled samples, traditional recipe; day 7 of storage; cited from earlier work

## O=C1c2c(O)cc(O)cc2OC(c2ccc(O)c(O)c2)C1O (stereo not shown) [Dihydroquercetin (taxifolin)]
[1]
  development of spontaneous oxidation: inhibited
Serum and liver lipids
  peroxidation of serum and liver lipids: inhibited
rats
  toxic effects: No toxic effects were observed
[2]
  ORAChydrophilic assay: over 15,000 μmol TE/g
[3]
  antioxidant effect: effective antioxidant
Lipid peroxidation
  lipid peroxidation: inhibits
[4]
  peroxide values lower by: 57.1% and 58.60%
